Experimental data: patent US11013235B2 (priority 2015, dated 2021)
Like-named read-outs stand apart in the source and are kept apart here.

Columns and labels:
Format in all cases: in vivo
Pratylenchus coffeae = assay: Nematode control, nodules per plant: Pratylenchus coffeae; settings: 1 μM foliar application every 5 days, evaluation 35 days after, control 42
Description: (§1) The solutions of the compounds were prepared in ethanol and diluted in water, up to a concentration of 1 μM for a foliar application. Applications were conducted every 5 days, spraying only the leafs with each compound. Ten plants were used for each treatment and the final evaluation was performed 35 days after, by quantifying the number of nodules per plant.

Radopholus similis = assay: Nematode control, nodules per plant: Radopholus similis; settings: 1 μM foliar application every 5 days, evaluation 35 days after, control 45
Description: as §1

Alternaria solani = assay: Control of Alternaria solani disease in tomato (As-SI); settings: 1 μM spraying every 24 hours for one week, water control 68
Description: (§2) In order to compare the effect of the compounds of formula I to V on the control of diseases in different plants, experiments were conducted in tobacco, tomato and Arabidopsis thaliana plants inoculated with Phytophthora parasitica, Rhizoctonia solani, Alternaria solani, Nocardia sp and Botrytis cinerea, respectively. The compounds were applied by spraying, at a concentration of 1 μM, every 24 hours for one week. The plant mortality rate was determined for the disease produced by Phytophthora parasitica, Rhizoctonia solani and Nocardia sp, while the percentage of leaves with symptoms was determined for the infection by Alternaria solani. In the case of plants affected by Botrytis cinerea, the lesion diameter was measured. […] Each treatment included fifty plants. As control, plants treated with water were studied. The plants of each treatment were previously inoculated with the indicated pathogens, according to different inoculation protocols (Frontiers in Plant Science 3: 268, 1-6, 2012), and later they were treated with the compounds.

Rhizoctonia solani [1] = assay: Control of Rhizoctonia solani disease in tobacco (Rs-Nt); settings: 1 μM spraying every 24 hours for one week, water control 87
Description: as §2

[2] = tested on: Candidatus 'Liberibacter asiaticus'; settings: spraying every 15 days, 12 months after treatment, Citrus sinensis with HLB
Phytophthora parasitica = assay: Control of Phytophthora parasitica disease in tobacco (Pp-Nt); settings: 1 μM spraying every 24 hours for one week, water control 91
Description: as §2

Meloidogyne incognita = assay: Nematode control, nodules per plant: Meloidogyne incognita; settings: 1 μM foliar application every 5 days, evaluation 35 days after, control 34
Description: as §1

Nocardia sp = assay: Control of Nocardia sp disease in tobacco (N-Nt); settings: 1 μM spraying every 24 hours for one week, water control 58
Description: as §2

Botrytis cinerea [3] = assay: Control of Botrytis cinerea disease in tomato (Bc-SI); settings: 1 μM spraying every 24 hours for one week, water control 7.4
Description: as §2

Rhizoctonia solani [4] = assay: Control of Rhizoctonia solani disease in tomato (Rs-SI); settings: 1 μM spraying every 24 hours for one week, water control 96
Description: as §2

Botrytis cinerea [5] = assay: Control of Botrytis cinerea disease in tobacco (Bc-Nt); settings: 1 μM spraying every 24 hours for one week, water control 6.7
Description: as §2

Botrytis cinerea [6] = assay: Control of Botrytis cinerea disease in Arabidopsis (Bc-At); settings: 1 μM spraying every 24 hours for one week, water control 8.7
Description: as §2

Structure (SMILES) | Pc: number of nodules per plant (Pratylenchus coffeae) | Rs: number of nodules per plant (Radopholus similis) | As-SI: percentage of leaves with the disease symptoms (Alternaria solani) [%] | Rs-Nt: percentage of mortality (Rhizoctonia solani [1]) [%] | Titers of the bacterium ([2]; 0.001 μM) [copies per reaction] | Titers of the bacterium ([2]; 0.01 μM) [copies per reaction] | Titers of the bacterium ([2]; 1 μM) [copies per reaction] | Titers of the bacterium ([2]; 5 μM) [copies per reaction] | Titers of the bacterium ([2]; 10 μM) [copies per reaction] | Pp-Nt: percentage of mortality (Phytophthora parasitica) [%] | Mi: number of nodules per plant (Meloidogyne incognita) | N-Nt: percentage of mortality (Nocardia sp) [%] | Bc-SI: mean of the diameter of the lesion (Botrytis cinerea [3]) [mm] | Rs-SI: percentage of mortality (Rhizoctonia solani [4]) [%] | Bc-Nt: mean of the diameter of the lesion (Botrytis cinerea [5]) [mm] | Bc-At: mean of the diameter of the lesion (Botrytis cinerea [6]) [mm]
O=C(Cc1cc2c(oc1=O)C=CC1C(n3cccc3)=COC21)NCC(O)CO (stereo not shown) [IIG, N-(2,3-dihydroxypropyl)-2-[11-oxo-5-(1H-pyrrol-1-yl)-3,10-dioxatricyclo[7.4.0.0^{2,6}]trideca-1(9),4,7,12-tetraen-12-yl]acetamide] | 0 | 3 | 7 | 0 | 658 | 0 | 3 | 68 | 4587 | 3 | 0 | 0 | 0.8 | 1 | 0.9 | 0.5
CC1=COC2c3c(oc(=O)c(CC(=O)NCC(O)CO)c3C)C=CC12 (stereo not shown) [IIH, N-(2,3-dihydroxypropyl)-2-{5,13-dimethyl-11-oxo-3,10-dioxatricyclo[7.4.0.0^{2,6}]trideca-1(9),4,7,12-tetraen-12-yl}acetamide] | 18 | 16 | 1 | 2 | 756 | 0 | 1 | 76 | 2365 | 1 | 2 | 1 | 2.5 | 3 | 1.5 | 1.5
Cc1c2c(oc(=O)c1CC(=O)NCC(O)CO)C=CC1C(c3ccccc3)=COC21 (stereo not shown) [III, N-(2,3-dihydroxypropyl)-2-{13-methyl-11-oxo-5-phenyl-3,10-dioxatricyclo[7.4.0.0^{2,6}]trideca-1(9),4,7,12-tetraen-12-yl}acetamide] | 1 | 2 | 2 | 3 | 456 | 0 | 1 | 56 | 3654 | 2 | 3 | 1 | 0.8 | 2 | 1.5 | 2.4
CN1CCN(c2ncc(C(=O)N3CC4CC(O)C(O)CC4C3)cn2)CC1 (stereo not shown) [IIIA, 2-{[2-(4-methylpiperazin-1-yl)pyrimidin-5-yl]carbonyl}-octahydro-1H-isoindole-5,6-diol] | 16 | 11 | 1 | 2 | 432 | 0 | 0 | 43 | 2365 | 1 | 2 | 1 | 0.8 | 3 | 1.5 | 2.4
Cc1nc(N2CCN(C)CC2)ncc1C(=O)N1CC2CC(O)C(O)CC2C1 (stereo not shown) [IIIB, 2-{[4-methyl-2-(4-methylpiperazin-1-yl)pyrimidin-5-yl]carbonyl}-octahydro-1H-isoindole-5,6-diol] | 16 | 2 | 2 | 3 | 123 | 0 | 0 | 23 | 8546 | 2 | 3 | 1 | 1.2 | 2 | 0.9 | 0.7
O=C(c1cnc(N2CCN(c3ccccc3)CC2)nc1)N1CC2CC(O)C(O)CC2C1 (stereo not shown) [IIIC, 2-{[2-(4-phenylpiperazin-1-yl)pyrimidin-5-yl]carbonyl}-octahydro-1H-isoindole-5,6-diol] | 2 | 14 | 3 | 4 | 587 | 0 | 0 | 87 | 3654 | 1 | 4 | 2 | 0.8 | 2 | 0.3 | 1.2
Cc1nc(N2CCN(c3ccccc3)CC2)ncc1C(=O)N1CC2CC(O)C(O)CC2C1 (stereo not shown) [IIID, 2-{[4-methyl-2-(4-phenylpiperazin-1-yl)pyrimidin-5-yl]carbonyl}-octahydro-1H-isoindole-5,6-diol] | 18 | 0 | 8 | 0 | 985 | 1 | 0 | 98 | 9653 | 0 | 0 | 1 | 1.6 | 2 | 2.0 | 1.1
